Measured values as given in the NIST ThermoML archive (doi:10.1021/je300848z).
Numbers after ± are expanded uncertainties.

Details: Liquid; for vapor or sublimation pressure: Ebulliometric method (Recirculating still)

Cc1ccc(C)cc1 [1,4-dimethylbenzene]
vapor or sublimation pressure (379.85 K): 40 ± 0.34 kPa

CCCCC(CC)CCl (centres undefined) [1-chloro-2-ethylhexane]
vapor or sublimation pressure (371.05 K): 9.9 ± 0.2 kPa
vapor or sublimation pressure (375.35 K): 11.7 ± 0.2 kPa
vapor or sublimation pressure (385.85 K): 17.1 ± 0.2 kPa
vapor or sublimation pressure (394.25 K): 22.8 ± 0.2 kPa
vapor or sublimation pressure (399.5 K): 27.1 ± 0.2 kPa
vapor or sublimation pressure (403.5 K): 30.8 ± 0.2 kPa
vapor or sublimation pressure (405.85 K): 33.2 ± 0.2 kPa
vapor or sublimation pressure (411.9 K): 39.9 ± 0.2 kPa
vapor or sublimation pressure (412.05 K): 40 ± 0.2 kPa
vapor or sublimation pressure (419.05 K): 49.4 ± 0.3 kPa
vapor or sublimation pressure (425.2 K): 59 ± 0.3 kPa
vapor or sublimation pressure (431.15 K): 69.6 ± 0.3 kPa
vapor or sublimation pressure (436.65 K): 80.7 ± 0.3 kPa
vapor or sublimation pressure (441.45 K): 91.6 ± 0.3 kPa
vapor or sublimation pressure (445.4 K): 101.3 ± 0.3 kPa
Normal boiling temperature (Equilibrium Still): 172.2 ± 0.2 °C

CCCCC(CC)CO (centres undefined) [2-ethyl-1-hexanol]
vapor or sublimation pressure (427.2 K): 40 ± 0.34 kPa

CN1CCCC1=O [N-methylpyrrolidone]
vapor or sublimation pressure (441.8 K): 40 ± 0.34 kPa
